Test results from ChEMBL document CHEMBL6083185, “Unraveling the future: Innovative design strategies and emerging challenges in HER2-targeted tyrosine kinase inhibitors for cancer therapy” (Eur J Med Chem, 2024).

Legend:
[1] = target: T1, Epidermal growth factor receptor (Homo sapiens, UniProt P00533)
Description: Inhibition of EGFR (unknown origin)

[2] = target: T2, Receptor tyrosine-protein kinase erbB-2 (Homo sapiens, UniProt P04626); experiment: Inhibition of HER2 (unknown origin)
[3] = target: T1, Epidermal growth factor receptor; experiment: Inhibition of human wild type EGFR using PolyEY as substrate pre-incubated for 30 mins followed by substrate addition and measured for 60 mins by spectrophotometric analysis
[4] = target: T2, Receptor tyrosine-protein kinase erbB-2; experiment: Inhibition of human wild type HER2 using PolyEY as substrate pre-incubated for 30 mins followed by substrate addition and measured for 60 mins by spectrophotometric analysis
[5] = tested on: BaF3; experiment: Antiproliferative activity against mouse BaF3 cells harboring HER2 YVMA mutant measured for 24 hrs by CellTiter-Glo assay; format: functional, cell-based; settings: BaF3, 24 h
[6] = Half life in human; format: ADME
[7] = target: T2, Receptor tyrosine-protein kinase erbB-2; experiment: Inhibition of flag-tagged HER2 (unknown origin) extracted from Escherichia coli
[8] = tested on: BT-474; experiment: Antiproliferative activity against human BT-474 cells; format: functional, cell-based
[9] = Metabolic stability in human liver microsomes assessed as half life incubated for 60 mins by LC-MS/MS analysis; format: ADME, Microsome
[10] = tested on: NCI-N87; experiment: Antiproliferative activity against human NCI-N87 cells assessed as cell growth measured for 48 hrs by MTT assay; format: functional, cell-based; settings: NCI-N87, 48 h
[11] = tested on: BT-474; experiment: Antiproliferative activity against human BT-474 cells assessed as reduction in cell growth; format: functional, cell-based
[12] = Clearance in rat; format: ADME; settings: in vivo
[13] = tested on: SK-BR-3; experiment: Antiproliferative activity against human SK-BR-3 cells assessed as reduction in cell growth incubated for 72 hrs by MTT assay; format: functional, cell-based; settings: SK-BR-3, 72 h
[14] = tested on: NCI-N87; experiment: Antiproliferative activity against human NCI-N87 cells; format: functional, cell-based
[15] = target: T2, Receptor tyrosine-protein kinase erbB-2; experiment: Inhibition of wild-type HER2 phosphorylation in human BT-474 cells; format: cell-based
[16] = target: Receptor tyrosine-protein kinase erbB-2 (Homo sapiens, UniProt P04626, D769Y); experiment: Inhibition of HER2 D769Y mutant (unknown origin)
Chain of Receptor tyrosine-protein kinase erbB-2 (Homo sapiens, UniProt P04626, D769Y) (P04626 23-1255 D769Y limits assumed): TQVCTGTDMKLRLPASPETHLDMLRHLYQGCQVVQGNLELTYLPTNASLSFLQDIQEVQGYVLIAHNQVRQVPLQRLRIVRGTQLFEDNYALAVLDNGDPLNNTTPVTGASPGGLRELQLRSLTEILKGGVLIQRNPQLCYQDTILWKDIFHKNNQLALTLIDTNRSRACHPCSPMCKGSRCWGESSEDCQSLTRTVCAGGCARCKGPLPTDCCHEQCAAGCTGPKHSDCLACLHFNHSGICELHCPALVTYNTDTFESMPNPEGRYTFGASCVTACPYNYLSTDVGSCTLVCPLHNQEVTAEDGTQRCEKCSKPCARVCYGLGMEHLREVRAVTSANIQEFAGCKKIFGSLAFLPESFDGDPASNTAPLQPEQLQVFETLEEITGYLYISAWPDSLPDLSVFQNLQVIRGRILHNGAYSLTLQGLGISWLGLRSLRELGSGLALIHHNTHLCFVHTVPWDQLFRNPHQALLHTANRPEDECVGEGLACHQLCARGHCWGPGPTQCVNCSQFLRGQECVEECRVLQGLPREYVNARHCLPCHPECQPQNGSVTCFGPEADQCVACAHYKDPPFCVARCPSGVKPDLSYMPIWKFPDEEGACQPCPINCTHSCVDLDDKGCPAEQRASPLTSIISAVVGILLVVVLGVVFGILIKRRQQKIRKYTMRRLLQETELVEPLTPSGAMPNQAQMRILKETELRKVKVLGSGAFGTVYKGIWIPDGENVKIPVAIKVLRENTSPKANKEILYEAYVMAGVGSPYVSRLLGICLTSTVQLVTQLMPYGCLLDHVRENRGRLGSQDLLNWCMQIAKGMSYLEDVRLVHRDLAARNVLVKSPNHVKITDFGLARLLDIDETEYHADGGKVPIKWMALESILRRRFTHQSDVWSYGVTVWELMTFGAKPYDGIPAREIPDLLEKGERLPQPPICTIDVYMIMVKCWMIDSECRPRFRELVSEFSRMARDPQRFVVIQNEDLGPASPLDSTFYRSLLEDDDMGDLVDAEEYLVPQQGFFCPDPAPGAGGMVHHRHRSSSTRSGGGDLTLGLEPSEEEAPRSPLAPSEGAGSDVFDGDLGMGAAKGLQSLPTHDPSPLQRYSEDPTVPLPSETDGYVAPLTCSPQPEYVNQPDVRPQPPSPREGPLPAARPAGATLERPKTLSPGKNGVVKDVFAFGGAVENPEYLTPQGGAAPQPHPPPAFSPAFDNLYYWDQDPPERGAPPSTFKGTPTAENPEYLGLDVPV

[17] = target: Receptor tyrosine-protein kinase erbB-2 (Homo sapiens, UniProt P04626, D769H); experiment: Inhibition of HER2 D769H mutant (unknown origin)
Chain of Receptor tyrosine-protein kinase erbB-2 (Homo sapiens, UniProt P04626, D769H) (P04626 23-1255 D769H limits assumed): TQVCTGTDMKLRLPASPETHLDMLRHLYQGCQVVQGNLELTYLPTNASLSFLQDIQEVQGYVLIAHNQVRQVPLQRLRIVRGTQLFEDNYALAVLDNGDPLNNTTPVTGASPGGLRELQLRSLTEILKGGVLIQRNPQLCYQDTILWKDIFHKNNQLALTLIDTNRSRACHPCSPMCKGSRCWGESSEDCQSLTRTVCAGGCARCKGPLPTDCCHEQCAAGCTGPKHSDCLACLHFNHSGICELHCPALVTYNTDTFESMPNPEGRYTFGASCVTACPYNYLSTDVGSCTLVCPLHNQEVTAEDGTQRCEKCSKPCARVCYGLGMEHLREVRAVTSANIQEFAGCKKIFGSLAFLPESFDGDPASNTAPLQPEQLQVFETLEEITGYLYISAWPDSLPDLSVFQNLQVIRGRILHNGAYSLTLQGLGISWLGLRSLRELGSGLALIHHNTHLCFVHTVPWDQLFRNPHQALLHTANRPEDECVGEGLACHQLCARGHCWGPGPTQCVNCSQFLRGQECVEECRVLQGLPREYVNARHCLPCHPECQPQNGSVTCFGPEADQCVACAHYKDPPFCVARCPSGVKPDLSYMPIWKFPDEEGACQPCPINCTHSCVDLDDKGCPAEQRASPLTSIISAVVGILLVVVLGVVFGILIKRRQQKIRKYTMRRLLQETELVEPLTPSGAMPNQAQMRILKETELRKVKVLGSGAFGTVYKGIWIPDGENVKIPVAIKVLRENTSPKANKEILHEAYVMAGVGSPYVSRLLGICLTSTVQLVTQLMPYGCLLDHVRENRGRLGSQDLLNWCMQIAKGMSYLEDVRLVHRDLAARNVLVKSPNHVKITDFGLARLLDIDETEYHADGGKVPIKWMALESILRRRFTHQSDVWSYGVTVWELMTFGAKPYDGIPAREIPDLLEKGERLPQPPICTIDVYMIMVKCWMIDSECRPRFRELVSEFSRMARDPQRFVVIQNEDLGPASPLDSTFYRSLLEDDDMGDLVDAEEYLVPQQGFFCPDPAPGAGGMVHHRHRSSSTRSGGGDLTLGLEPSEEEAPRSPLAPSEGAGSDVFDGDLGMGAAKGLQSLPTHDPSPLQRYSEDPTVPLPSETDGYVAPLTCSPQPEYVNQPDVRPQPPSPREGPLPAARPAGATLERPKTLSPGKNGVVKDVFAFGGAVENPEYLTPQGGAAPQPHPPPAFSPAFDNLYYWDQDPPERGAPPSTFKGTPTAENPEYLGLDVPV

[18] = Metabolic stability in human liver microsomes assessed as half life; format: ADME, Microsome
[19] = Antiproliferative activity against human NCI-H1975 cells harboring EGFR L858R mutant assessed as reduction in cell viability measured after 72 hrs by MTT assay; format: functional, cell-based; settings: NCI-H1975, 72 h

T1 sequence (P00533 whole entry): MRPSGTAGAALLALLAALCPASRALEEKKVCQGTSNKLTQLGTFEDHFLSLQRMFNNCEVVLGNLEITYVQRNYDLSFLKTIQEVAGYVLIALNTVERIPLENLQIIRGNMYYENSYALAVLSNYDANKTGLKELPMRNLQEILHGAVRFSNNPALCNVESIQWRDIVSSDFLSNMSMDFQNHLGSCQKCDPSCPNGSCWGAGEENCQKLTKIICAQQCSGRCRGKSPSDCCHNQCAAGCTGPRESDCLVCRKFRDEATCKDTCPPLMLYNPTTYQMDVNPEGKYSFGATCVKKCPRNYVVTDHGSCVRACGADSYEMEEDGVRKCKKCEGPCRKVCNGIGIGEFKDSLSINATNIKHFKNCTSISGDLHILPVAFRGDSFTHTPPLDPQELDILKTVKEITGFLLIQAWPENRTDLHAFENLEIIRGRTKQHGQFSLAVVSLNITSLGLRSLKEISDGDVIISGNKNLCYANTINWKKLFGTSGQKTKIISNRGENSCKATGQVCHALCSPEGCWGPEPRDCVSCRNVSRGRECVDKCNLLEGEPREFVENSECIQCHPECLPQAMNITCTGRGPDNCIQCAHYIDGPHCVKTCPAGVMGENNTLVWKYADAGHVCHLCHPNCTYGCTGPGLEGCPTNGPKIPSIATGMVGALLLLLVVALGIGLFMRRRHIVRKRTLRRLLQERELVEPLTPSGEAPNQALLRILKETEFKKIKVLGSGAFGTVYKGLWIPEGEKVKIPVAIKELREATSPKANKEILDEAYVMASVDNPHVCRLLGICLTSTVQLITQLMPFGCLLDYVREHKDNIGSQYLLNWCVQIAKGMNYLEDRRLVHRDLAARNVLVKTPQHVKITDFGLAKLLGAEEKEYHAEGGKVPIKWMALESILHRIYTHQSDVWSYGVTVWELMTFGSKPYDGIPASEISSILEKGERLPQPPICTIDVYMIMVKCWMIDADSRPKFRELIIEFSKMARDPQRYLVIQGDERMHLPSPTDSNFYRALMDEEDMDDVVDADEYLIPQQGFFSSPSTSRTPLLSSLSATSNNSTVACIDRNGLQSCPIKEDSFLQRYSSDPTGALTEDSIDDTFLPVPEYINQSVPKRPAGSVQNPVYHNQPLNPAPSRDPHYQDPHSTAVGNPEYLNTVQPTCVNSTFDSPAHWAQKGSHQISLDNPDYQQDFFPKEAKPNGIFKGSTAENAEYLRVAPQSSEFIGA
T2 sequence (P04626 whole entry): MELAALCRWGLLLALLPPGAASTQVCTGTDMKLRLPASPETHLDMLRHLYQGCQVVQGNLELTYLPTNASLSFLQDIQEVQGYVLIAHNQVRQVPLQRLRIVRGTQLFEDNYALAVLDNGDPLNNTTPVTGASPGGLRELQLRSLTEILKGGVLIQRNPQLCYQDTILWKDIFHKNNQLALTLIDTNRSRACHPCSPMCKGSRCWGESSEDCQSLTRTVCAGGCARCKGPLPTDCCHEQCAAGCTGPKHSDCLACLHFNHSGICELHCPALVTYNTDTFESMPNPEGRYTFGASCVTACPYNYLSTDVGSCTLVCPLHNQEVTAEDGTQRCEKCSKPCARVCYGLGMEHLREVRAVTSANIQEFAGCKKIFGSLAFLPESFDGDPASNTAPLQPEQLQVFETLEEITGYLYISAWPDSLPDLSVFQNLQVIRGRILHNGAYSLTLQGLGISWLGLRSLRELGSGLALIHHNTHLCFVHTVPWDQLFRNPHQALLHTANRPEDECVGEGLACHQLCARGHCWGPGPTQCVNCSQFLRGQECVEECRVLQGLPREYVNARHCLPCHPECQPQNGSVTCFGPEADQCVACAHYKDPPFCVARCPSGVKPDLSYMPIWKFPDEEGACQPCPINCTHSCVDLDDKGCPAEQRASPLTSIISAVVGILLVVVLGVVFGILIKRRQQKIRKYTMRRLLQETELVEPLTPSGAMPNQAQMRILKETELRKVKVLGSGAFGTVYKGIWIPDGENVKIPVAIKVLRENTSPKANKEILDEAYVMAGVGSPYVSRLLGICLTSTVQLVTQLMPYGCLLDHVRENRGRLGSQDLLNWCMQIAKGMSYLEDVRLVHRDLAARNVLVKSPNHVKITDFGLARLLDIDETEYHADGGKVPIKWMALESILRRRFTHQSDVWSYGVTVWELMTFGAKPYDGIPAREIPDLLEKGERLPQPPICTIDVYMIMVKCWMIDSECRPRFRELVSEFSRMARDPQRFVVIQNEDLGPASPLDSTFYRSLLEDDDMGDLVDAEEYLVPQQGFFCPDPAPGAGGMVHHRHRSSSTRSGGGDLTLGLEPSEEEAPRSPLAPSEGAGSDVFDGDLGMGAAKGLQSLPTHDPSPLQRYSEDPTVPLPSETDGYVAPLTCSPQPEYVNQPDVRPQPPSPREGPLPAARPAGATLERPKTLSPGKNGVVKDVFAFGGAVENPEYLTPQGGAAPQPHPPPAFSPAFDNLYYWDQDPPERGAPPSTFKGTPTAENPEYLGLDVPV

| IC50 [1] [nM] | IC50 [2] [nM] | SMILES | also measured |
| --- | --- | --- | --- |
| 7.04 | 2.21 | CCOc1cc2ncc(C#N)c(Nc3ccc(Oc4ccn5ncnc5c4)c(C)c3)c2cc1NC(=O)/C=C/CN(C)C |  |
|  |  | C=CC(=O)N1CCN(c2ncc3ncnc(Nc4ccc(Oc5ccc6c(c5)ncn6C)c(C)c4)c3n2)CC1 | IC50 [3]: > 5 nM; IC50 [4]: 16 nM; IC50 [5]: 16 nM |
| 1.19 | 1.4 | Cc1cc(Nc2ncnc3ccc(NC(=O)/C=C/[C@H]4CCCN4C)cc23)ccc1Oc1cc2ncnn2cn1 |  |
|  | 38 | CCOc1cc2ncc(C#N)c(Nc3ccc(OCc4ccccn4)c(Cl)c3)c2cc1NC(=O)/C=C/[C@H]1CCCN1C [PYROTINIB] |  |
| 2010 | 314 | Cc1ccc2cccc(Oc3ccc(Nc4ncnc5ccc(NC(=O)C6CCCC6)cc45)cc3C)c2n1 |  |
| 166 | 239 | COc1ccc2c(Nc3ccc(Oc4cccc5ccc(C)nc45)c(C)c3)ncnc2c1 |  |
|  |  | CN1CCN(CCCOc2ccc3ncnc(Nc4ccc(OCc5cccc(F)c5)c(Cl)c4)c3c2)CC1 | half-life [6]: 0.957 h; IC50 [7]: 12 nM; IC50 [8]: 80 nM |
|  |  | Cc1cc(Nc2ncnc3ccc(NC(=O)/C=C/[C@H]4CCCN4C)cc23)ccc1Oc1ccn2ncnc2c1 | half-life [9]: > 116 h; IC50 [10]: 2.65 nM; IC50 [11]: 2.4 nM |
|  | 12 | O=C(Nc1ccc2ncnc(Nc3ccc(OCc4cccc(F)c4)c(Cl)c3)c2c1)c1ccc(CNCCO)cc1 | IC50 [8]: 200 nM; clearance [12]: ≤ 9.6 mL/min/kg |
| 155 | 8 | Cc1ccc2cccc(Oc3ccc(Nc4ncnc5ccc(NC6CCCC6)cc45)cc3C)c2n1 | IC50 [13]: 238 nM |
| 1.36 | 1.67 | CCOc1cc2ncnc(Nc3ccc(Oc4ccn5ncnc5c4)c(C)c3)c2cc1NC(=O)/C=C/[C@H]1CCCN1C | IC50 [14]: 1.12 nM; IC50 [8]: 2.13 nM |
|  |  | Cc1cc(Nc2ncnc3cccc(OC4CCN(C)CC4)c23)ccc1Oc1ccn2ncnc2c1 | IC50 [15]: 18 nM |
|  |  | Cc1cc(Nc2ncnc3cccc(O[C@H]4CCN(C)CC4(F)F)c23)ccc1Oc1ccn2ncnc2c1 | IC50 [15]: 5.8 nM |
| 143 | 42 | COCCOc1ccc2ncnc(Nc3ccc(Oc4cccc5ccc(C)nc45)c(C)c3)c2c1 |  |
| > 500 | 8 | Cc1cc(Nc2ncnc3ccc(NC4=NC(C)(C)CO4)cc23)ccc1Oc1ccn2ncnc2c1 [TUCATINIB] |  |
|  | ~2.3 | C=CC(=O)Nc1cccc(-c2c(-c3ccc(N4CCN(C)CC4)cc3)[nH]c3ncnc(Nc4ccc(OCc5ccccn5)c(Cl)c4)c23)c1 |  |
| 12 | 12 | COCCOc1cc2ncnc(Nc3ccc(Oc4cccc5ccc(C)nc45)c(C)c3)c2cc1OCCOC |  |
|  | 152 | C=CC(=O)N1CCN(C(=O)Oc2cc3c(Nc4cccc(Cl)c4F)ncnc3cc2OC)[C@H](C)C1 |  |
|  |  | C=CC(=O)N1CCN(c2ncc3ncnc(Nc4ccc(Oc5ccccc5)c(C)c4)c3n2)CC1 | IC50 [3]: 200 nM; IC50 [4]: 12 nM; IC50 [5]: 12 nM |
| 8.13 | 3.51 | CCOc1cc2ncnc(Nc3ccc(Oc4ccn5ncnc5c4)c(C)c3)c2cc1NC(=O)/C(F)=C/[C@H]1CCCN1C [SPH-5030] | IC50 [16]: < 1 nM; IC50 [17]: < 1 nM; half-life [18]: 9.24 h; IC50 [14]: 1.09 nM; IC50 [8]: 2.01 nM |
| 11 | 14 | COc1cc2ncnc(Nc3ccc(Oc4cccc5ccc(C)nc45)c(C)c3)c2cc1OC |  |
|  |  | C=CC(=O)N1CCN(c2ncc3ncnc(Nc4ccc(Oc5ccn6ncnc6c5)c(C)c4)c3n2)CC1 | IC50 [3]: 2200 nM; IC50 [4]: 5.8 nM; IC50 [5]: 5.8 nM |
|  | 13 | C=CC(=O)NC1CCN(c2ncc3ncnc(Nc4ccc(Oc5ccc6c(c5)ncn6C)c(C)c4)c3n2)CC1 [ZONGERTINIB] |  |
|  |  | C=CC(=O)Nc1cccc(-c2c[nH]c3ncnc(Nc4ccc(OCc5ccccn5)c(Cl)c4)c23)c1 | IC50 [5]: 17 nM |
| 0.12 | 16.4 | C=CC(=O)N1CCC[C@@H](n2nc(-c3ccc(OCc4cccc(C)n4)cc3)c3c(N)ncnc32)C1 |  |
|  | 1.69 | C=CC(=O)N1CCC(Oc2cc3c(Nc4ccc(Cl)c(Cl)c4F)ncnc3cc2OC)CC1 [POZIOTINIB] |  |
|  | 6.07 | C=CC(=O)N1C[C@@H]2C[C@H]1CN2C(=O)Oc1cc2c(Nc3ccc(Cl)c(Cl)c3F)ncnc2cc1OC |  |
|  | 0.04 | COc1cc2c(Nc3ccc(Oc4ccn5ncnc5c4)c(C)c3)ncnc2cc1OCCCN1CCN(CCCCCCCNc2ccc3c(c2)C(=O)N(C2CCC(=O)NC2=O)C3=O)CC1 (centres undefined) |  |
| 65 | 16.4 | C=CC(=O)N1CCC[C@@H](n2nc(C(=O)Nc3ccc(CC(=O)N(C)C)c(C)c3C)c3c(N)ncnc32)C1 |  |
| 1.01 |  | CCOCCOc1cc2ncnc(Nc3ccc(OCc4ccccn4)c(Cl)c3)c2cc1NC(=O)/C=C/CN(C)C | IC50 [19]: 60.6 nM |
